Laboratory results from PMC5487684, “Safety, Pharmacokinetics, and Antiviral Activity of a Novel HIV Antiviral, ABX464, in Treatment-Naive HIV-Infected Subjects in a Phase 2 Randomized, Controlled Study” (Antimicrobial Agents and Chemotherapy, 2017).

Test system: HIV-infected subjects
Assay: Safety and tolerability (TEAEs, ECG, laboratory) after repeated oral administration, phase 2a study
Type: in vivo, human
Experimental: Participants were assigned to one of eight groups; each group (with one exception) included eight subjects receiving either ABX464 (n = 6) or the corresponding placebo (n = 2) according to a randomization code. […] In the present study with HIV-infected subjects, the first dose administered was 25 mg, given once or 3 times a day over a 2- to 3-week period. This initial dose was therefore considered safe for assessment of the safety and tolerability of ABX464 after repeated oral administrations in subjects infected by HIV and determination of the potential effect on the HIV viral load.
The final dosing protocol for each of the eight groups was as follows: group 1, 25 mg every 3 days for 2 to 3 weeks under fasted conditions; group 2, 25 mg once a day (q.d.) for 2 to 3 weeks under fasted conditions; group 3, 50 mg once a day for 2 to 3 weeks under fasted conditions; group 4, 50 mg 3 times a day (t.i.d.) for 4 weeks under fed conditions; group 5, 75 mg once a day for 2 weeks under fed conditions; group 6, 100 mg once a day for 2 to 3 weeks under fasted conditions; group 7, 150 mg every 3 days for 2 to 3 weeks under fed conditions; and group 8, 150 mg once a day for 2 weeks under fed conditions. Per the study protocol, the treatment period was defined as 2 weeks. […] The decision to proceed to the next highest dose was determined by the data and safety monitoring board after review of the laboratory safety data, vital signs, ECGs, and adverse event reports from the group receiving the current dose after 2 weeks of treatment.
Subjects were hospitalized from the day prior to the first dose to at least the morning of day 2. They were orally dosed with 25-mg capsules of ABX464 with 240 ml water under fed or fasted conditions. According to the group, subjects were dosed with 1, 2, 3, 4, or 6 capsules to deliver 25 mg, 50 mg, 75 mg, 100 mg, or 150 mg product, respectively, or the same number of placebo capsules.
Safety assessments and laboratory tests were carried out according to the schedules described in Table S4 for groups dosed every day, every 3 days, and 3 times a day. Follow-up visits were scheduled for 7 days after the last dose and subsequently once every week in order to assess the elimination of the main ABX464 metabolite and to assess the viral load. Follow-up visits were terminated when the virus load was within 0.5 log of the baseline value or after 3 follow-up visits, whichever came first. Prior to the statistical analyses, AEs were coded using the Medical Dictionary for Regulatory Activities (MedDRA dictionary; last available version) in order to be tabulated by system organ class (SOC) and preferred term (PT). The AEs were analyzed according to the treatment emergence phase from the first study drug administration on day 1 up to 48 h after the last study drug administration. The number and percentage of subjects with at least one TEAE were tabulated by SOC and PT for each group and dose. The number of occurrences of TEAEs was also analyzed in the same way by SOC and PT for each group and dose, by grade of severity for each group and dose, and by level of causality to the study drug for each group and dose.

[1] = Group 2 (n = 6), 25 mg q.d., fasted, Moderate
[2] = Group 3 (n = 7), 50 mg q.d., fasted, Mild
[3] = Group 3 (n = 7), 50 mg q.d., fasted, Moderate
[4] = Group 4 (n = 7), 50 mg t.i.d., fed, Mild
[5] = Group 4 (n = 7), 50 mg t.i.d., fed, Moderate

FC(F)(F)Oc1ccc(Nc2ccc3cccc(Cl)c3n2)cc1 [ABX464]
3 (42.9) No. (%): Subjects experiencing at least one TEAE: Gastrointestinal disorders [4] | Subjects experiencing at least one TEAE: Musculoskeletal and connective tissue disorders [4]
7 (100.0) No. (%): Subjects experiencing at least one TEAE: Total [4]
1 (14.3) No. (%): Subjects experiencing at least one TEAE: Arthralgia [2] | Subjects experiencing at least one TEAE: Gastrointestinal disorders [2] | Subjects experiencing at least one TEAE: Headache [2] | Subjects experiencing at least one TEAE: Musculoskeletal and connective tissue disorders [2] | Subjects experiencing at least one TEAE: Nausea [2] | Subjects experiencing at least one TEAE: Nervous system disorders [2] | Subjects experiencing at least one TEAE: Vomiting [2] | Subjects experiencing at least one TEAE: Headache [3] | Subjects experiencing at least one TEAE: Nervous system disorders [3] | Subjects experiencing at least one TEAE: Total [3] | Subjects experiencing at least one TEAE: Arthralgia [4] | Subjects experiencing at least one TEAE: Neck pain [4] | Subjects experiencing at least one TEAE: Pain in extremity [4] | Subjects experiencing at least one TEAE: Vomiting [4] | Subjects experiencing at least one TEAE: Gastrointestinal disorders [5] | Subjects experiencing at least one TEAE: Total [5] | Subjects experiencing at least one TEAE: Upper abdominal pain [5]
0 (0.0) No. (%): Subjects experiencing at least one TEAE: Total [1] | Subjects experiencing at least one TEAE: Upper abdominal pain [1] | Subjects experiencing at least one TEAE: Vomiting [1] | Subjects experiencing at least one TEAE: Abdominal pain [2] | Subjects experiencing at least one TEAE: Back pain [2] | Subjects experiencing at least one TEAE: Diarrhea [2] | Subjects experiencing at least one TEAE: Flank pain [2] | Subjects experiencing at least one TEAE: Injury, poisoning, and procedural complications [2] | Subjects experiencing at least one TEAE: Neck pain [2] | Subjects experiencing at least one TEAE: Pain in extremity [2] | Subjects experiencing at least one TEAE: Sciatica, back pain [2] | Subjects experiencing at least one TEAE: Skin abrasion [2] | Subjects experiencing at least one TEAE: Upper abdominal pain [2] | Subjects experiencing at least one TEAE: Abdominal pain [3] | Subjects experiencing at least one TEAE: Arthralgia [3] | Subjects experiencing at least one TEAE: Back pain [3] | Subjects experiencing at least one TEAE: Diarrhea [3] | Subjects experiencing at least one TEAE: Flank pain [3] | Subjects experiencing at least one TEAE: Injury, poisoning, and procedural complications [3] | Subjects experiencing at least one TEAE: Musculoskeletal and connective tissue disorders [3] | Subjects experiencing at least one TEAE: Nausea [3] | Subjects experiencing at least one TEAE: Neck pain [3] | Subjects experiencing at least one TEAE: Pain in extremity [3] | Subjects experiencing at least one TEAE: Sciatica, back pain [3] | Subjects experiencing at least one TEAE: Skin abrasion [3] | Subjects experiencing at least one TEAE: Upper abdominal pain [3] | Subjects experiencing at least one TEAE: Vomiting [3] | Subjects experiencing at least one TEAE: Abdominal pain [4] | Subjects experiencing at least one TEAE: Diarrhea [4] | Subjects experiencing at least one TEAE: Flank pain [4] | Subjects experiencing at least one TEAE: Injury, poisoning, and procedural complications [4] | Subjects experiencing at least one TEAE: Nausea [4] | Subjects experiencing at least one TEAE: Sciatica, back pain [4] | Subjects experiencing at least one TEAE: Skin abrasion [4] | Subjects experiencing at least one TEAE: Abdominal pain [5] | Subjects experiencing at least one TEAE: Arthralgia [5] | Subjects experiencing at least one TEAE: Back pain [5] | Subjects experiencing at least one TEAE: Diarrhea [5] | Subjects experiencing at least one TEAE: Flank pain [5] | Subjects experiencing at least one TEAE: Headache [5] | Subjects experiencing at least one TEAE: Injury, poisoning, and procedural complications [5] | Subjects experiencing at least one TEAE: Musculoskeletal and connective tissue disorders [5] | Subjects experiencing at least one TEAE: Nausea [5] | Subjects experiencing at least one TEAE: Neck pain [5] | Subjects experiencing at least one TEAE: Nervous system disorders [5] | Subjects experiencing at least one TEAE: Pain in extremity [5] | Subjects experiencing at least one TEAE: Sciatica, back pain [5] | Subjects experiencing at least one TEAE: Skin abrasion [5] | Subjects experiencing at least one TEAE: Vomiting [5] | Subjects experiencing at least one TEAE: Abdominal pain (Group 5 (n = 6), 75 mg q.d., fed, Mild)
2 (28.6) No. (%): Subjects experiencing at least one TEAE: Total [2] | Subjects experiencing at least one TEAE: Back pain [4] | Subjects experiencing at least one TEAE: Headache [4] | Subjects experiencing at least one TEAE: Nervous system disorders [4] | Subjects experiencing at least one TEAE: Upper abdominal pain [4]
